Test results from patent US10562857B2 (AFASCI, Inc., priority 2015, dated 2020).

How the values were obtained:
[1] = Metabolic stability in human liver microsomes; format: in vitro ADME
From the text: (§1) In vitro data of metabolic stability and protein binding as well as in vivo pharmacokinetic data for compounds of the invention can be generated using the techniques disclosed in, e.g., Obach, R. S. et al., J. Pharmacol. Exp. Ther. 283(1): 46-58 (1997), which is hereby incorporated by reference in its entirety. Various biological, pharmacokinetic and other properties of the compounds, including hepatic microsomal stability, determination of metabolites, binding to proteins such as plasma protein binding, and in vivo studies, including single-dose and multi-dose pharmacokinetic studies, can be determined using the protocols described in that publication and the publications cited therein. Other aspects and advantages of the present invention will become apparent from the above detailed description, as illustrated by way of example of the principles of the invention. The scope of the invention is to be defined by the claims appended hereto and their equivalents. Selected pharmacokinetic studies in vitro and in vivo in rats were performed for preferred compounds, for example EXAMPLE-128 and compared with two reference compounds ML218 and Z944 by a contract research organization (BioDuro, Inc., San Diego, US). Tables 3A and 3B summarize some of the in vitro and vivo pharmacodynamic and pharmacokinetic parameters, respectively.

Cav3.3 = molecular target: T1, Cav3.3 (Homo sapiens, UniProt Q9P0X4); assay: Whole-cell patch clamp of T-type Cav3.3 channel expressed in HEK293 cells; format: cell-based; details: Table 2
T1 construct: expressed in transfected cells; host or cells: HEK-293, tetracycline inducible expression system (Invitrogen)
T1 sequence (Q9P0X4 whole entry, species assumed): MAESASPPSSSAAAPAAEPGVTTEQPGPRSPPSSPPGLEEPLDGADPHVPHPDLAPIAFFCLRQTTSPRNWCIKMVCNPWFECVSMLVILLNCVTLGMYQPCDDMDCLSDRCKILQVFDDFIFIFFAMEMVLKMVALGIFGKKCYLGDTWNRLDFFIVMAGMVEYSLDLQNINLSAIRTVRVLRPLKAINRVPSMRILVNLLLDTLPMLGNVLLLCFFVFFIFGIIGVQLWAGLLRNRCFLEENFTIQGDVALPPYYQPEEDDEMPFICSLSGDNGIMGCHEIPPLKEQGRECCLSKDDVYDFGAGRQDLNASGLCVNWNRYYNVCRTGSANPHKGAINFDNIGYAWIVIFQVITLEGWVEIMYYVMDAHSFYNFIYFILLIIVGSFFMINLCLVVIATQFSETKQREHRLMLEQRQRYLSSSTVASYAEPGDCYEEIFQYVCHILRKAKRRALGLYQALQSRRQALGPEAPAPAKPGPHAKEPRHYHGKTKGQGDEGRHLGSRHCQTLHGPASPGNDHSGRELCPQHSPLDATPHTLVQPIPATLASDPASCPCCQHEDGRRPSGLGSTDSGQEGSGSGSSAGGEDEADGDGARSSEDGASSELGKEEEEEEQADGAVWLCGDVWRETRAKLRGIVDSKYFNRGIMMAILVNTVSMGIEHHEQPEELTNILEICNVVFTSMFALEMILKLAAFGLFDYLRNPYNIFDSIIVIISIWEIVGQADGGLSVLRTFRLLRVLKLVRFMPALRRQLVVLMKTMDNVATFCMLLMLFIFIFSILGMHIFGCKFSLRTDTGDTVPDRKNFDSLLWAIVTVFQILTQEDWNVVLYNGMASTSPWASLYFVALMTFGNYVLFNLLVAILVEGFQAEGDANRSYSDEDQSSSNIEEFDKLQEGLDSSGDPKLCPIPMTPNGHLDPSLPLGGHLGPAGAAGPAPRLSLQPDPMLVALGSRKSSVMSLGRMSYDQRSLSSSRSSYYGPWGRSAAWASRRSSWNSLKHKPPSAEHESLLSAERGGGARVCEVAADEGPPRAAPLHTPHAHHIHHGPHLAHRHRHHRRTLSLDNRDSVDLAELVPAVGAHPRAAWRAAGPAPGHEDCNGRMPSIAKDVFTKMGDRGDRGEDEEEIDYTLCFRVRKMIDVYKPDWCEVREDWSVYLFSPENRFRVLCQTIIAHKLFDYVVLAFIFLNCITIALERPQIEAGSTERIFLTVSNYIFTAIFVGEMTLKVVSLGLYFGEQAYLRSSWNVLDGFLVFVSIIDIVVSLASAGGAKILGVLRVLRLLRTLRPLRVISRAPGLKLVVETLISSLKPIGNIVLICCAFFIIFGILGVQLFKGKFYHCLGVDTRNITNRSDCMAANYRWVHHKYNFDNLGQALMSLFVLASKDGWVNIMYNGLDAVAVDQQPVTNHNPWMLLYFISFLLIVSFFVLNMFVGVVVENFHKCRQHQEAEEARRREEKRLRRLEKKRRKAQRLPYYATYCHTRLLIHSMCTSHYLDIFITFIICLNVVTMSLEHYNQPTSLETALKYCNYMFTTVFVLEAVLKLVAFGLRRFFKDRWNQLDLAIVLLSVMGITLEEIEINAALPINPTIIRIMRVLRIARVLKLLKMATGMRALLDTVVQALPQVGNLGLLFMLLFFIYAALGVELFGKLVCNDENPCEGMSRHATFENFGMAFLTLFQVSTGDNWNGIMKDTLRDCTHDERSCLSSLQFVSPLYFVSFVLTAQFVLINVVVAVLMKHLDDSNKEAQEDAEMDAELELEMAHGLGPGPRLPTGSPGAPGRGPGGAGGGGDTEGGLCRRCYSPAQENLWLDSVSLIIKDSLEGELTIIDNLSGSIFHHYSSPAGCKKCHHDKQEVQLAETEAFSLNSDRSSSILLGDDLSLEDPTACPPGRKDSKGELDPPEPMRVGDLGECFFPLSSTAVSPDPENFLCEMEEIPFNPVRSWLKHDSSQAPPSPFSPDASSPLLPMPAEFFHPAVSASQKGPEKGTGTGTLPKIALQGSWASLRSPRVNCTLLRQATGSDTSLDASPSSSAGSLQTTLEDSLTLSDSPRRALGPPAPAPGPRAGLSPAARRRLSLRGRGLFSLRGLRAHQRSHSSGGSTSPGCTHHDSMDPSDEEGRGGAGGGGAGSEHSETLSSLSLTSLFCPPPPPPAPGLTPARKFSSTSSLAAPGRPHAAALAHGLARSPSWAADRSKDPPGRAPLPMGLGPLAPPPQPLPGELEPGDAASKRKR
Protocol: (§2) Cav3.1, Cav3.2 or Cav3.3 channels were expressed in human embryonic kidney (HEK)-293 cells using a tetracycline inducible expression system (Invitrogen). Cells were maintained in 25 cm^2 tissue culture flasks at 37° C., 5% CO2, and 100% relative humidity in D-MEM/F12 (Dulbecco's Modified Eagle Medium/Nutrient Mixture F-12; Gibco) supplemented with fetal bovine serum (FBS, 10% v/v), sodium pyruvate (0.5 mM, Gibco), penicillin-streptomycin (100 U/mL, 100 μg/mL) and Geneticin® Selective antibiotic (G418; 0.5 mg/mL). Cells were detached from the flask base using a non-enzymatic cell dissociation solution (Cellstripper, Corning), removed and re-seeded on to poly-D-lysine coated glass coverslips in 35 mm dishes.
(§3) Whole-cell voltage clamp recordings were performed on rat or mouse DRG neurons within 2 days after acutely dissociation or cultured HEK293 cells expressing T-type channels (encoded by Cav3.1, Cav3.2 or Cav3.3 channels). All experiments were performed at room temperature (around 21° C.). Whole-cell currents were recorded using a MultiClamp 700B amplifier and analyzed offline with pCLAMP10.4 software (Molecular Devices, LLC, Sunnyvale Calif., USA). […] Since the sodium ions were absent in the external solution, tetrodoctoxin was not needed. Calcium currents were recorded at a holding potential of −100 mV and then depolarized to −30 mV for 100 ms to activate either Cav3.1, Cav3.2, or Cav3.3 expressed in HEK cells. An interpulse interval of 10 seconds allowed the channel recovery from inactivation, and achieved stable current recordings. To record sodium (Na^+) currents in DRG neurons, the external solution used the modified Krebs solution specified above. The internal solution was composed (in mM) of 120 CsF, 10 HEPES, 11 EGTA, 1 CaCl2, 1 MgCl2, 10 TEA-Cl, 4 MgATP and 0.3 MgGTP (pH 7.3-7.4 adjusted with CsOH). […] To record potassium currents in DRG neurons, the external solution used the modified Kreb's solution specified above. The internal solution was composed (in mM) of 65 KCl, 80 KF, 5 KOH, 10 EGTA, 2 MgATP (pH 7.3-7.4 adjusted with KOH). Recording electrodes were fabricated using a P-87 puller (Sutter Instrument Co., Novato, Calif., USA). The tip of resistance was 3-4 MQ in bath and the series resistance was less than 10 MΩ after whole cell configuration. All reagents were purchased from Sigma unless specified otherwise. Test compounds were usually applied via a rapid solution exchange system with 8 fine polyplastic tubings (100 μm, OD) glued in a holder in parallel and located closely to the recorded cells. The current responses were normalized to the control, percent inhibition was calculated and sigmoidal dose-response curves were generated using XLFit (IDBS, Surrey, UK) or Prism (GraphPad Software, La Jolla, Calif., US) to calculate IC50 values and Hill slopes using the following equation Y=Bottom+(Top−Bottom)/(1+10^((Log EC50−X)[…])).

[2] = Plasma protein binding, rat; format: in vitro ADME; details: for fraction unbound: read-out: PPB % (Rat) (converted)
From the text: as §1

Plasma stability, human = format: in vitro ADME
From the text: as §1

Cav3.1 = molecular target: T2, Cav3.1 (Homo sapiens, UniProt O43497); assay: Whole-cell patch clamp of T-type Cav3.1 channel expressed in HEK293 cells; format: cell-based; details: Table 2
T2 construct: expressed in transfected cells; host or cells: HEK-293, tetracycline inducible expression system (Invitrogen)
T2 sequence (O43497 whole entry): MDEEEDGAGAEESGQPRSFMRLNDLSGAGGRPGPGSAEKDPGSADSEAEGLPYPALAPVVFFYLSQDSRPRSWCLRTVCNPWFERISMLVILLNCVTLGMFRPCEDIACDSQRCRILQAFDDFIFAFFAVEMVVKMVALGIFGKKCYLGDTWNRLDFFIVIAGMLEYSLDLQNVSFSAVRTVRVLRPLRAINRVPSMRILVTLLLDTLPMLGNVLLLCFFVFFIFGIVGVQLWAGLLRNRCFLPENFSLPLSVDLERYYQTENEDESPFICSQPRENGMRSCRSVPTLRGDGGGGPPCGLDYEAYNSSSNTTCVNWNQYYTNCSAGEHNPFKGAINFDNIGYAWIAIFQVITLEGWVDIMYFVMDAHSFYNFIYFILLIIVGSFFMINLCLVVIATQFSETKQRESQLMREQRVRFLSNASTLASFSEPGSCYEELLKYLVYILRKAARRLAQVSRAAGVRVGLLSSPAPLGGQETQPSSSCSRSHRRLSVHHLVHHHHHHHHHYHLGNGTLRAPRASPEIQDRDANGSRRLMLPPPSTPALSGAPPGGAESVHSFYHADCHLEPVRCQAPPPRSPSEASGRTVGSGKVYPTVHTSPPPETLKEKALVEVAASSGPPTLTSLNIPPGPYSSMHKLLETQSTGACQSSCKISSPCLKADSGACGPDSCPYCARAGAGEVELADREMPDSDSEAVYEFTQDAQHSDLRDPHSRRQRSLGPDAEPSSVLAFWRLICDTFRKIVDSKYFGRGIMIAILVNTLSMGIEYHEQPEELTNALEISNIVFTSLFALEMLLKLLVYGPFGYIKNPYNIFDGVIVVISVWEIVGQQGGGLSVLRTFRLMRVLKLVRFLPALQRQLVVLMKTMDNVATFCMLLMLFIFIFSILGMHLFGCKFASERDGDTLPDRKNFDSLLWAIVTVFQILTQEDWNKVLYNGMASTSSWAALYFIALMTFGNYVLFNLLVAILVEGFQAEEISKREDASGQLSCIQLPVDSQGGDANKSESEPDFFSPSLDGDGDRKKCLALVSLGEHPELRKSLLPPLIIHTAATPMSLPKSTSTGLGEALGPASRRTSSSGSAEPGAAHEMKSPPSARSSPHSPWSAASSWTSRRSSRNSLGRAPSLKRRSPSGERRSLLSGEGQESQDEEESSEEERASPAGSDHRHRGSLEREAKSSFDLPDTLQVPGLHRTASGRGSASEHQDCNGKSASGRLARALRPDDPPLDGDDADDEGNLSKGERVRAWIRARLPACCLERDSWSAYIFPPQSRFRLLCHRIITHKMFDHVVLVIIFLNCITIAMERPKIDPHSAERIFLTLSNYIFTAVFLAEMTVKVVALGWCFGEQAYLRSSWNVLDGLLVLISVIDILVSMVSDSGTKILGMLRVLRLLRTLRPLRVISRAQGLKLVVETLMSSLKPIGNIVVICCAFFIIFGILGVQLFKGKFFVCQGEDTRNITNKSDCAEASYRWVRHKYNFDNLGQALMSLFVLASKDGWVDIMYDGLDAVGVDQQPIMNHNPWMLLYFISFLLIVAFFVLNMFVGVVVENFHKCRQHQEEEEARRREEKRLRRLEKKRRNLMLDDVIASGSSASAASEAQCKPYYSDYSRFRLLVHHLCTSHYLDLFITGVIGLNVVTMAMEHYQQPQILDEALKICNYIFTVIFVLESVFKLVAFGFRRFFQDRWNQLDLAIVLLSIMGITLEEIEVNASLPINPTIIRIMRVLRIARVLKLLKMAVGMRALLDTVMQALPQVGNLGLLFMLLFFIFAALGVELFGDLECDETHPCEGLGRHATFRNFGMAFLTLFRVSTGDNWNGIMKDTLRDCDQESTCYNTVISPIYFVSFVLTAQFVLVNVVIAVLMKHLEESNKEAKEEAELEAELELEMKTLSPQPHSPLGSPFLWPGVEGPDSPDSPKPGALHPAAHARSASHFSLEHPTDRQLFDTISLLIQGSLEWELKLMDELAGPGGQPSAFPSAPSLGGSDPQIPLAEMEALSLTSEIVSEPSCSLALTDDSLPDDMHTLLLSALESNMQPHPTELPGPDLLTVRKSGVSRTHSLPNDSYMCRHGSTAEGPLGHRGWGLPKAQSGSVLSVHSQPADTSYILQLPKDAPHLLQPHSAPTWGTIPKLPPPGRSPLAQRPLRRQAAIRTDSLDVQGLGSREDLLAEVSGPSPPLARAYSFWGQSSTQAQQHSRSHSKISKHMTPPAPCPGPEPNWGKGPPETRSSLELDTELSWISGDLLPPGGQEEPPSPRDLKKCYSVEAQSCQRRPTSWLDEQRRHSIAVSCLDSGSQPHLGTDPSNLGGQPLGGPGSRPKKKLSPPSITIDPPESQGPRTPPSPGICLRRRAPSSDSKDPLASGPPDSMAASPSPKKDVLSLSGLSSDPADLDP
Protocol: as §2, §3

[3] = test system: PTZ-induced seizures in mice; assay: Pentylenetetrazol (PTZ)-induced seizures in mice; format: in vivo, mouse; details: for PTZ-induced Fatality (%): 30 mg/kg I.P. 60 min before PTZ 40 mg/kg I.P., death within 20 min; for latency to seizures / fatality latency / fatality rate: 30 mg/kg I.P., PTZ 40 mg/kg I.P.; for fatality latency / fatality rate: 20 min cutoff
Protocol: FIG. 10. […] Sixty minutes (min) prior to receiving PTZ (40 mg/kg, I.P.), each mouse was pretreated with either an Example compound, ML218, Z944 or vehicle (2% DMSO in 0.5% HPC). Fatality rate (%) of mice in each group that dies within the 20 minutes observation period—was calculated. Both fatality rate and latency (data not shown) to death were used to evaluate the Example compound's ability to prevent death resulting from PTZ-induced seizures. A cutoff of 20 minutes was set for observational and statistical analysis purposes.
It is well known that antiepileptics, e.g. carbamazepine, lamotrigine and gabapentin are used for the treatment of neuropathic pain (Xie et al., 1995, Caviedes and Herranz, 2001). T-channel overactivation is involved in the generation of seizure activity (Huguenard, 1998, Cribbs et al., 2000, Perez-Reyes et al., 2009, Perez-Reyes, 2010). […] Fatality latency and rate—the percentage (%) of mice in each treatment group that died within a 20 minute cutoff of the observational period, were recorded and calculated. Averaged fatality latency and rate of each treatment group was used to evaluate the Example compound's ability to either prevent or delay the onset of PTZ-induced seizures and death.

[4] = Metabolic stability in rat liver microsomes; format: in vitro ADME
From the text: as §1

[5] = read-out: Human Liver Microsomes Clint (μL/min/mg protein)
[6] = read-out: Human Liver Microsomes t1/2
[7] = read-out: Rat Liver Microsomes Clint (μL/min/mg protein)
[8] = read-out: Rat Liver Microsomes t1/2

| SMILES | half-life [1] | microsomal CLint [1] | IC50 (Cav3.3) | recovery [2] | fraction unbound [2] | Plasma Stability @ 5 h % (Human) (Plasma stability, human) | IC50 (Cav3.1) | PTZ-induced Fatality (%) [3] | latency to seizures [3] | fatality latency [3] | fatality rate [3] | half-life [4] | microsomal CLint [4] | microsomal CLint [1, 5] | half-life [1, 6] | microsomal CLint [4, 7] | half-life [4, 8] |
| --- | --- | --- | --- | --- | --- | --- | --- | --- | --- | --- | --- | --- | --- | --- | --- | --- | --- |
| CC(C)(C)NC(=O)CN1CCC2(CC1)CC2NC(=O)c1cc(F)cc(Cl)c1 (single isomer, unassigned) [Example 128, (S)—N-(6-(2-(tert-Butylamino)-2-oxoethyl)-6-azaspiro[2.5]octan-1-yl)-3-chloro-5-fluorobenzamide or (R)—N-(6-(2-(tert-Butylamino)-2-oxoethyl)-6-azaspiro[2.5]octan-1-yl)-3-chloro-5-fluorobenzamide] | 6.08 h | 1.9 µL/min/mg | 0.75 µM | 90.4% | 0.242 | 95.7/ % | 0.06 µM | 16.7% | significantly prolonged latencies to seizures | prolonged fatality latencies | decreased the fatality rate | 5.25 h | 2.2 µL/min/mg |  |  |  |  |
| CC(C)(C)NC(=O)CN1CCC(CNC(=O)c2cc(F)cc(Cl)c2)CC1 [Z944, reference compound] |  |  | 0.57 µM | 91.1% | 0.287 | 100/ % | 0.11 µM | 33.3% | significantly prolonged latencies to seizures | prolonged fatality latencies | decreased the fatality rate |  |  | 5.5 µL/min/mg | 2.1 h | 13.2 µL/min/mg | 0.875 h |
| CC(C)(C)CCN1C[C@@H]2[C@@H](CNC(=O)c3cc(Cl)cc(Cl)c3)[C@@H]2C1 [ML218, 3,5-Dichloro-N-[[(1α,5α,6-exo,6α)-3-(3,3-dimethylbutyl)-3-azabicyclo[3.1.0]hex-6-yl]methyl]benzamide, reference compound] |  |  | 0.27 µM | 94.9% | 0.108 | 97.9/ % | 0.14 µM | 50% | significantly prolonged latencies to seizures | prolonged fatality latencies | decreased the fatality rate |  |  | 1.1 µL/min/mg | 10.5 h | 5.5 µL/min/mg | 2.1 h |
| CC(C)(C)CCN1CCC2(CC1)C[C@H]2NC(=O)c1cc(C(F)(F)F)ccc1Cl (single isomer, unassigned) [Example 147, (R)-2-Chloro-N-(6-(3,3-dimethylbutyl)-6-azaspiro[2.5]octan-1-yl)-5-(trifluoromethyl)benzamide or (S)-2-Chloro-N-(6-(3,3-dimethylbutyl)-6-azaspiro[2.5]octan-1-yl)-5-(trifluoromethyl)benzamide] |  |  | 1.58 µM |  |  |  | 2.41 µM |  | significantly prolonged latencies to seizures | prolonged fatality latencies | decreased the fatality rate |  |  |  |  |  |  |
| CC(C)(C)NC(=O)CN1CCC2(CC1)C[C@H]2NC(=O)C12CC3CC(CC(C3)C1)C2 (single isomer, unassigned) [Example 145, N—((R)-6-(2-(tert-butylamino)-2-oxoethyl)-6-azaspiro[2.5]octan-1-yl)adamantane-1-carboxamide or N—((S)-6-(2-(tert-butylamino)-2-oxoethyl)-6-azaspiro[2.5]octan-1-yl)adamantane-1-carboxamide] |  |  | 0.31 µM |  |  |  | 0.07 µM |  | significantly prolonged latencies to seizures | prolonged fatality latencies | decreased the fatality rate |  |  |  |  |  |  |
| CC(C)(C)CCN1CCC2(CC1)CC2NC(=O)c1cc(F)cc(Cl)c1 (stereo not shown) [Example 28, 3-Chloro-N-(6-(3,3-dimethylbutyl)-6-azaspiro[2.5]octan-1-yl)-5-fluorobenzamide] |  |  | 0.21 µM |  |  |  | 0.28 µM |  | significantly prolonged latencies to seizures | prolonged fatality latencies | decreased the fatality rate |  |  |  |  |  |  |
| CC(C)(C)NC(=O)CN1CCC2(CC1)CC2C(=O)Nc1cc(F)cc(C(F)(F)F)c1 (stereo not shown) [Example 141, 6-(2-(tert-Butylamino)-2-oxoethyl)-N-(3-fluoro-5-(trifluoromethyl)phenyl)-6-azaspiro[2.5]octane-1-carboxamide] |  |  | 0.23 µM |  |  |  | 0.34 µM |  | significantly prolonged latencies to seizures | prolonged fatality latencies | decreased the fatality rate |  |  |  |  |  |  |
| CC(C)(C)NC(=O)CN1CCC2(CC1)C[C@H]2NC(=O)c1cc(C(F)(F)F)cc(C(F)(F)F)c1 (single isomer, unassigned) [Example 144, ((R)—N-(6-(2-(tert-butylamino)-2-oxoethyl)-6-azaspiro[2.5]octan-1-yl)-3,5-bis(trifluoromethyl)benzamide or (S)—N-(6-(2-(tert-butylamino)-2-oxoethyl)-6-azaspiro[2.5]octan-1-yl)-3,5-bis(trifluoromethyl)benzamide] |  |  | 0.25 µM |  |  |  | 0.04 µM |  | significantly prolonged latencies to seizures | prolonged fatality latencies | decreased the fatality rate |  |  |  |  |  |  |
